From patent publication US8445636B2, “Antimicrobial and anticancer lipopeptides” (Yeda Research & Development Co. Ltd., priority 2003, dated 2013) come the findings set out here.

In brackets after ≈: the same amount, converted by molar mass. Read-outs that look alike come from different tables or passages of the source.

What all share (experiment): microbe, parasite or virus in culture
What all share (assay type): cell-based

The test system of test [1] is Cryptococcus neoformans ATCC MYA-422. The note with it: Cryptococcus neoformans; Table 9, short lipopeptides; pH 7.4; mean of 3 experiments, standard deviation of 25%; read-out: Minimal Inhibitory Concentration, Cyrptococcus neoformans (ATCC MYA-422).
For test [2], the system named is Aspergillus fumigatus ATCC 26430. The note with it: Aspergillus fumigatus, ATCC26430.
The test system of test [3] is Candida albicans ATCC 10231. As to conditions: Candida albicans, ATCC10231. As for the experimental part:
(§1) The antifungal activity of the lipopeptides was examined in sterile 96-well plates (Nunc F96 microtiter plates) in a final volume of 200 μL as follows: 100 µl of a suspension containing fungi at a concentration of 1×10^4 Colony-Forming Units (CFU)/ml in culture medium (RPMI 1640, 0.165 M MOPS with L-glutamine, without NaHCO3) at pH 7.4 or pH 5.5 (adjustment of the pH was done by diluted solutions of HCl and NaOH) were added to 100 μl of water containing the peptide in serial 2-fold dilutions in water. The fungi were incubated in the presence of the lipopeptides for 24-48 h at 35° C. in a Binder KB115 incubator under agitation. Growth inhibition was determined by measuring the absorbance at 620 nm with a Microplate autoreader E1309 (Bio-Tek Instruments). Antifungal activity is expressed as the minimal inhibitory concentration (MIC), the concentration at which 100% inhibition of fungi growth was observed after the incubation time mentioned above. The fungi used were: Aspergillus niger ATCC 9642, Candida albicans ATCC 10231 and Cryptococcus neoformans ATCC 66031. If not indicated otherwise, the fungi growth was detected at pH 7.4.

The subject of test [4] is Cryptococcus neoformans ATCC 66031. As to conditions: Cryptococcus neoformans, ATCC66031. As for the experimental part: as §1

As to `C[C@@H]1[C@H](O)[C@@H](C)/C=C/C=C/C=C/C=C/C=C/C=C/C=C/[C@H](O[C@@H]2O[C@H](C)[C@@H](O)[C@H](N)[C@@H]2O)C[C@@H]2O[C@](O)(C[C@@H](O)C[C@@H](O)[C@H](O)CC[C@@H](O)C[C@@H](O)CC(=O)O[C@H]1C)C[C@H](O)[C@H]2C(=O)O` [Amphotericin, reference compound], the MIC in test [1] is 0.312 µM (≈ 0.288 µg/mL); in test [2] (Table 9, short lipopeptides, pH 7.4, mean of 3 experiments, standard deviation of 25%, read-out: Minimal Inhibitory Concentration, Aspergillus Fomigatus (ATCC 26430)) it was 1.25 µM (≈ 1.16 µg/mL); in test [2] (Table 12, with serum, pH 7.4, read-out: Minimal inhibitory concentrations, A. Fumig. With serum), < 0.78 µM; in test [2] (Table 12, without serum, pH 7.4, read-out: Minimal inhibitory concentrations, A. Fumig. Without serum) it was 2.34 µM (≈ 2.16 µg/mL); in test [2] (Table 13, pH 5.5, with serum, read-out: Minimal inhibitory concentrations, A. Fumig. With serum) it was < 0.78 µM; in test [2] (Table 13, pH 5.5, without serum, read-out: Minimal inhibitory concentrations, A. Fumig. Without serum), 3.12 µM (≈ 2.89 µg/mL). Moreover, the MIC in test [3] (Table 9, short lipopeptides, pH 7.4, mean of 3 experiments, standard deviation of 25%, read-out: Minimal Inhibitory Concentration, Candida Albicans (ATCC 10231)) was 0.625 µM (≈ 0.578 µg/mL); in test [3] (Table 12, with serum, pH 7.4, read-out: Minimal inhibitory concentrations, C. Albicans With serum), 0.78 µM (≈ 0.721 µg/mL); in test [3] (Table 12, without serum, pH 7.4, read-out: Minimal inhibitory concentrations, C. Albicans Without serum), 3.12 µM (≈ 2.89 µg/mL); in test [3] (Table 13, pH 5.5, with serum, read-out: Minimal inhibitory concentrations, C. Albicans With serum), 0.78 µM (≈ 0.721 µg/mL); in test [3] (Table 13, pH 5.5, without serum, read-out: Minimal inhibitory concentrations, C. Albicans Without serum) it was 9.38 µM (≈ 8.66 µg/mL); in test [4] (Table 12, with serum, pH 7.4, read-out: Minimal inhibitory concentrations, C. Neofor. With serum), < 0.78 µM. Moreover, the MIC in test [4] (Table 12, without serum, pH 7.4, read-out: Minimal inhibitory concentrations, C. Neofor. Without serum) is < 0.78 µM; in test [4] (Table 13, pH 5.5, with serum, read-out: Minimal inhibitory concentrations, C. Neofor. With serum), < 0.78 µM; in test [4] (Table 13, pH 5.5, without serum, read-out: Minimal inhibitory concentrations, C. Neofor. Without serum), 3.12 µM (≈ 2.89 µg/mL).
